# In patent US6242494A, “Substituted β-amino acid inhibitors of methionine aminopeptidase-2” (Abbott Laboratories, priority 1999, dated 2001):
# Structures can show the parent of a compound that is named as a salt.
# Target: T1, methionine aminopeptidase-2 (MetAP2) (Homo sapiens, UniProt P50579)
# T1 construct: made in house; host or cells: insect cells, baculovirus system (secreted, purified from culture supernatant)
# Assay: Inhibition of MetAP2 enzyme activity (96-well, Met-Ala-Ser substrate, L-amino acid oxidase/peroxidase/ortho-dianisidine, 450 nm)
# Type: biochemical
# Conditions: IC50, recombinant MetAP2 4 μg/mL, pH 7.4, Met-Ala-Ser substrate, 20 minutes
# Description: The ability of compounds of the present invention to inhibit methionine aminopeptidase 2 was evaluated using the following assay.
# Assays for MetAP2 enzyme activity and MetAP2 inhibition were performed in 96-well microtiter plates. Compounds to be tested for MetAP2 inhibition were dissolved in dimethyl-sulfoxide at 10 mM and diluted ten-fold in assay buffer ([…], pH 7.4, 100 mM NaCl). Ten microliters of solution of each compound to be tested for inhibition were introduced into each cell of the plate, with each compound being tested in triplicate.
# The absorbence at 450 nanometers was measured every 20 seconds over a period of twenty minutes using an automaic plate reader (Molecular Devices, CA, USA). The Vmax in mOD/min, calculated for each well was used to represent MetAP2 activity. The IC50 for each inhibitor was obtained by plotting the remaining MetAP2 activity versus inhibitor concentration.
# T1 sequence (P50579 whole entry): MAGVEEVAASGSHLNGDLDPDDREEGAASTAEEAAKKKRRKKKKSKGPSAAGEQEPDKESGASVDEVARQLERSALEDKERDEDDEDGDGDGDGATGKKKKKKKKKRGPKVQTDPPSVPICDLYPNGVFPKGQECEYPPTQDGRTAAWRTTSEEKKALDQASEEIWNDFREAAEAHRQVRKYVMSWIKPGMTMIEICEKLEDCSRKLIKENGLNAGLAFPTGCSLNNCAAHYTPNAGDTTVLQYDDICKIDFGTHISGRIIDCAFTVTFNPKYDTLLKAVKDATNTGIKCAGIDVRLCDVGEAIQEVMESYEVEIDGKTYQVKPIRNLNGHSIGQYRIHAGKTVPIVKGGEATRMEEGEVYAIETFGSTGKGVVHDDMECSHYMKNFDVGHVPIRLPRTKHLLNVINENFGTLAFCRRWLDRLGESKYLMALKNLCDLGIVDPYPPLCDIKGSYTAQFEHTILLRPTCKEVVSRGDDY
row,Compound,IC50
1,"CSCC[C@@H](N)C(O)C(=O)NCCCCc1ccccc1 (mixture of isomers) [Example 7, (2RS,3R)-N-(4-phenylbutyl)-3-amino-2-hydroxy-5-(methylthio)pentanamide hydrochloride]",2000 nM
2,"COc1ccc(CCNC(=O)C(O)[C@H](N)CCSC)cc1 (mixture of isomers) [Example 8, (2RS,3R) N-(2-(4-methoxyphenyl)ethyl)-3-amino-2-hydroxy-5-(methylthio)pentanamide hydrochloride]",2300 nM
3,"CSCC[C@@H](N)C(O)C(=O)NCCc1ccc(Oc2ccccc2)cc1 (mixture of isomers) [Example 11, (2RS,3R)-N-(2-(4-phenoxyphenyl)ethyl)-3-amino-2-hydroxy-5-(methylthio)pentanamide hydrochloride]",2600 nM
4,"CCOC(=O)CCCNC(=O)C(O)[C@H](N)CCSCC (mixture of isomers) [Example 16, (2RS,3R)-N-(3-(carboethoxy)propyl)-3-amino-2-hydroxy-5-(ethylthio)pentanamide hydrochloride]",780 nM
5,"CSCC[C@@H](N)C(O)C(=O)O (mixture of isomers) [Example 18, (2RS,3R)-3-amino-2-hydroxy-5-(methylthio)pentanoic acid]",150 nM
6,"CSCC[C@@H](N)C(O)C(=O)NCCc1ccncc1 (mixture of isomers) [Example 19, (2RS,3R)-N-(2-(4-pyridyl)ethyl)-3-amino-2-hydroxy-5-(methylthio)pentanamide]",1600 nM
7,"CCOC(=O)CCNC(=O)C(O)[C@H](N)Cc1ccccc1 (mixture of isomers) [Example 20, (2RS,3R)-N-(2-(carboethoxy)ethyl)-3-amino-2-hydroxy-4-phenyl-butanamide hydrochloride]",5800 nM
8,"CCOC(=O)CCCNC(=O)C(O)[C@H](N)Cc1ccccc1 (mixture of isomers) [Example 21, (2RS,3R)-N-(3-(carboethoxy)propyl)-3-amino-2-hydroxy-4-phenyl-butanamide hydrochloride]",14000 nM
9,"N[C@H](Cc1ccccc1)C(O)C(=O)NCCCCc1ccccc1 (mixture of isomers) [Example 22, (2RS,3R)-N-(4-phenylbutyl)-3-amino-2-hydroxy-4-phenyl-butanamide hydrochloride]",3400 nM
10,"CSCC[C@@H](N)C(O)C(=O)NCCc1cccnc1 (mixture of isomers) [Example 32, (2RS,3R)-N-(2-(3-pyridyl)ethyl)-3-amino-2-hydroxy-5-(methylthio)pentanamide]",1400 nM
11,"N[C@H](CC1CCCCC1)C(O)C(=O)NCCCCNS(=O)(=O)c1cccc(C(F)(F)F)c1 (mixture of isomers) [Example 84, (2RS,3R)-3-amino-4-cyclohexyl-2-hydroxy-N-(4-(((3-(trifluoromethyl)phenyl)sulfonyl)amino)butyl)butanamide hydrochloride]",3300 nM
12,"COc1ccc(S(=O)(=O)NCCCCNC(=O)C(O)[C@H](N)CC2CCCCC2)cc1OC (mixture of isomers) [Example 85, (2RS,3R)-3-amino-4-cyclohexyl-N-(4-(((3,4-dimethoxyphenyl)sulfonyl)amino)butyl)-2-hydroxybutanamide hydrochloride]",3200 nM
13,"N[C@H](CC1CCCCC1)C(O)C(=O)NCCCCNS(=O)(=O)c1ccc2ccccc2c1 (mixture of isomers) [Example 87, (2RS,3R)-3-amino-4-cyclohexyl-2-hydroxy-N-(4-((2-naphthylsulfonyl)amino)butyl)butanamide hydrochloride]",2700 nM
14,"N[C@H](CC1CCCCC1)C(O)C(=O)NCc1ccco1 (mixture of isomers) [Example 100, (2RS,3R)-3-Amino-4-cyclohexyl-N-(2-furylmethyl)-2-hydroxybutanamide Hydrochloride]",5900 nM
15,"N[C@H](CC1CCCCC1)C(O)C(=O)NCCCN1CCCC1=O (mixture of isomers) [Example 102, (2RS,3R)-3-Amino-4-cyclohexyl-2-hydroxy-N-(3-(2-oxo-1-pyrrolidinyl)propyl)butanamide Hydrochloride]",13000 nM
16,"N[C@H](CC1CCCCC1)C(O)C(=O)Nc1ccccc1 (mixture of isomers) [Example 107, (2RS,3R)-3-Amino-4-cyclohexyl-2-hydroxy-N-phenylbutanamide Hydrochloride]",1200 nM
17,"N[C@H](CC1CCCCC1)C(O)C(=O)NCCc1ccccc1Cl (mixture of isomers) [Example 108, (2RS,3R)-3-Amino-N-(2-chlorophenethyl)-4-cyclohexyl-2-hydroxybutanamide Hydrochloride]",630 nM

row,Compound,IC50
1,"N[C@H](CC1CCCCC1)C(O)C(=O)NCCCc1ccccc1 (mixture of isomers) [Example 109, (2RS,3R)-3-Amino-4-cyclohexyl-2-hydroxy-N-(3-phenylpropyl)butanamide Hydrochloride]",1700 nM
2,"CC(C)(C)C1CCC(NC(=O)C(O)[C@H](N)CC2CCCCC2)CC1 (mixture of isomers) [Example 111, (2RS,3R)-3-Amino-N-(4-(tert-butyl)cyclohexyl)-4-cyclohexyl-2-hydroxybutanamide Hydrochloride]",8200 nM
3,"N[C@H](CC1CCCCC1)C(O)C(=O)Nc1cc(Cl)cc(Cl)c1 (mixture of isomers) [Example 112, (2RS,3R)-3-Amino-4-cyclohexyl-N-(3,5-dichlorophenyl)-2-hydroxybutanamide Hydrochloride]",1500 nM
4,"CC(C)(C)OC(=O)CNC(=O)C(O)[C@H](N)CC1CCCCC1 (mixture of isomers) [Example 126, tert-butyl (2RS,3R)-2-((3-amino-4-cyclohexyl-2-hydroxybutanoyl)amino)acetate hydrochloride]",13000 nM
5,"COC(=O)C(Cc1ccccc1)NC(=O)C(O)[C@H](N)CC1CCCCC1 (mixture of isomers) [Example 127, methyl (2RS,3R)-2-((3-amino-4-cyclohexyl-2-hydroxybutanoyl)amino)-3-phenylpropanoate hydrochloride]",28000 nM
6,"C[C@H](NC(=O)C(O)[C@H](N)CC1CCCCC1)c1cccc2ccccc12 (mixture of isomers) [Example 133, (2RS,3R)-3-amino-4-cyclohexyl-2-hydroxy-N-((1S)-1-(1-naphthyl)ethyl)butanamide hydrochloride]",270 nM
7,"C[C@@H](NC(=O)C(O)[C@H](N)CC1CCCCC1)c1cccc2ccccc12 (mixture of isomers) [Example 134, (2RS,3R)-3-amino-4-cyclohexyl-2-hydroxy-N-((1R)-1-(1-naphthyl)ethyl)butanamide hydrochloride]",3100 nM
8,"N[C@H](CC1CCCCC1)C(O)C(=O)NC(CO)CO (mixture of isomers) [Example 136, (2RS,3R)-3-amino-4-cyclohexyl-2-hydroxy-N-(2-hydroxy-1-(hydroxymethyl)ethyl)butanamide trifluoroacetate]",1800 nM
9,"N[C@H](CC1CCCCC1)C(O)C(=O)NCCc1ccc(F)cc1 (mixture of isomers) [Example 142, (2RS,3R)-3-amino-4-cyclohexyl-N-(4-fluorophenethyl)-2-hydroxybutanamide hydrochloride]",400 nM
10,"Cc1ccc(NC(=O)C(O)[C@H](N)CC2CCCCC2)cc1 (mixture of isomers) [Example 143, (2RS,3R)-3-amino-4-cyclohexyl-2-hydroxy-N-(4-methylphenyl)butanamide]",870 nM
11,"N[C@H](CC1CCCCC1)C(O)C(=O)Nc1ccc(F)cc1 (mixture of isomers) [Example 144, (2RS,3R)-3-amino-4-cyclohexyl-N-(4-fluorophenyl)-2-hydroxybutanamide]",2100 nM
12,"COc1ccc(NC(=O)C(O)[C@H](N)CC2CCCCC2)cc1 (mixture of isomers) [Example 145, (2RS,3R)-3-amino-4-cyclohexyl-2-hydroxy-N-(4-methoxyphenyl)butanamide]",1200 nM
13,"COc1ccccc1NC(=O)C(O)[C@H](N)CC1CCCCC1 (mixture of isomers) [Example 146, (2RS,3R)-3-amino-4-cyclohexyl-2-hydroxy-N-(2-methoxyphenyl)butanamide]",1500 nM
14,"N[C@H](CC1CCCCC1)C(O)C(=O)Nc1ccc(Cl)cc1 (mixture of isomers) [Example 147, (2RS,3R)-3-amino-N-(4-chlorophenyl)-4-cyclohexyl-2-hydroxybutanamide]",1000 nM
15,"N[C@H](CC1CCCCC1)C(O)C(=O)Nc1cccc(Cl)c1 (mixture of isomers) [Example 148, (2RS,3R)-3-amino-N-(3-chlorophenyl)-4-cyclohexyl-2-hydroxybutanamide]",520 nM
16,"N[C@H](CC1CCCCC1)C(O)C(=O)Nc1ccccc1Cl (mixture of isomers) [Example 149, (2RS,3R)-3-amino-N-(2-chlorophenyl)-4-cyclohexyl-2-hydroxybutanamide]",930 nM

# Same assay, conditions: recombinant MetAP2 4 μg/mL, pH 7.4, Met-Ala-Ser substrate, 20 minutes
row,Compound,IC50
1,"CCOC(=O)CCCNC(=O)C(O)[C@H](N)CC1CCCCC1 (mixture of isomers) [Example 25, (2RS,3R)-N-(3-(carboethoxy)propyl)-3-amino-2-hydroxy-4-cyclohexyl-butanamide hydrochloride]",1900 nM
2,"N[C@H](CC1CCCCC1)C(O)C(=O)NC1CCCc2ccccc21 (mixture of isomers) [Example 110, (2RS,3R)-3-Amino-4-cyclohexyl-2-hydroxy-N-(1,2,3,4-tetrahydro-1-naphthalenyl)butanamide Hydrochloride]",1000 nM
